Assay [1] concerns the target T1, SARS-CoV-2 3CL^pro (Severe acute respiratory syndrome coronavirus 2, UniProt P0DTD1). The experiment in a line: biochemical.
For assay [2], the target named is T1, SARS-CoV-2 3CL^pro. As to the kind of experiment: Inactivation kinetic analyses against SARS-CoV-2 3CL^pro. The format is biochemical.
The mark [3] stands for this setting: IC50 (μM) 3 min, 3 min preincubation.
Where [4] appears, read: IC50 (μM) 63 min, 63 min preincubation.

Molecules are shown by their SMILES. pKi: −log10 of the molar value.

Experimental findings from PMC10052880 (Phytomedicine, 2023) are described below.

For `Oc1cc(O)c2c(c1)O[C@H](c1ccc(O)c(O)c1)[C@H](O)C2` [epicatechin], in assay [1], the Ratio is listed as 6.22. Moreover, the IC50 stood at 70.6 µM in assay [1] (setting [3]) and 11.3 µM in assay [1] (setting [4]).

`O=c1cc(-c2ccc(O)c(-c3c(O)cc(O)c4c(=O)cc(-c5ccc(O)cc5)oc34)c2)oc2cc(O)cc(O)c12` [amentoflavone]: the Ratio in assay [1] is recorded as 1.92. In addition, the values for the IC50 in assay [1] (setting [3]) and in assay [1] (setting [4]) were 82.1 µM and 42.9 µM, respectively.

Consider `COc1cc(O)c2c(=O)cc(-c3ccc(OC)c(-c4c(O)cc(O)c5c(=O)cc(-c6ccc(O)cc6)oc45)c3)oc2c1` [ginkgetin], for which, in assay [1], the Ratio is listed as 10.32. Besides, the IC50 in assay [1] (setting [3]) turned out to be 76.5 µM; in assay [1] (setting [4]), 7.42 µM.

Regarding `COc1ccc(-c2cc(=O)c3c(O)cc(O)c(-c4cc(-c5cc(=O)c6c(O)cc(O)cc6o5)ccc4OC)c3o2)cc1` [isoginkgetin], the Ratio in assay [1] stood at 2.01. Moreover, the IC50 in assay [1] (setting [3]) came to 70.8 µM; in assay [1] (setting [4]), 35.2 µM.

With `O=c1cc(-c2ccc(O)cc2)oc2cc(O)cc(O)c12` [apigenin], the Ratio in assay [1] came out at 3.62. Besides, the IC50 turned out to be 115 µM in assay [1] (setting [3]) and 31.7 µM in assay [1] (setting [4]).

As to `O=c1cc(-c2ccc(O)c(O)c2)oc2cc(O)cc(O)c12` [luteolin], the Ratio in assay [1] is listed as 10.57. For the same compound, the concentration for half-maximal inhibition (IC50) in assay [1] (setting [3]) was found to be 195 µM; in assay [1] (setting [4]), 18.4 µM.

In assay [2], `Oc1cc(O)c2c(c1)O[C@H](c1cc(O)c(O)c(O)c1)[C@@H](O)C2` [gallocatechin] showed a pKi of 5.60. Moreover, in assay [2] (read-out: Kinact (min^−1)), the kinact is 0.03 min⁻¹. Besides, the Ratio in assay [1] is 3.30. Further, the IC50 in assay [1] (setting [3]) was determined as 3.23 µM; in assay [1] (setting [4]), 0.98 µM.

For the compound `COc1ccc(-c2cc(=O)c3c(O)cc(O)cc3o2)cc1-c1c(O)cc(O)c2c(=O)cc(-c3ccc(O)cc3)oc12` [bilobetin], the Ratio in assay [1] stood at 3.54. The values for the IC50 in assay [1] (setting [3]) and in assay [1] (setting [4]) were 32.1 µM and 9.06 µM, respectively.

In general, IC50 refers to the point on the concentration scale where inhibition reaches its midpoint. A word on the pKi: it is the Ki on a negative log10 scale, so that one unit is a factor of ten. Read a high pKi as a small Ki. In general, kinact refers to the maximal first-order rate at which the target is inactivated.
